The text below walks through data of patent US8709745B2, “Methods for isolating ligands of the human bitter taste receptor TAS2R49” (Deutsches Institut für Ernährungsforschung Potsdam-Rehbrücke, priority 2009, dated 2014).

Entries after “also recorded” stand apart in the source; their conditions may differ. Where a name gives a salt, the structure may show the parent alone.

For data set [1] the following is noted: vendor property list; cited from earlier work.
The target of data set [2] is T1, TAS2R49 human bitter taste receptor (Homo sapiens, UniProt P59543, K79E).
T1 construct: first 45 amino acids of rat somatostatin receptor type 3 (SST), membrane-targeting signal (N); expressed in transfected cells; host or cells: HEK-293T cells stably expressing the chimeric G-protein alpha subunit Gα16gust44; vector pcDNA5/FRT
T1 sequence (P59543 1-309 K79E): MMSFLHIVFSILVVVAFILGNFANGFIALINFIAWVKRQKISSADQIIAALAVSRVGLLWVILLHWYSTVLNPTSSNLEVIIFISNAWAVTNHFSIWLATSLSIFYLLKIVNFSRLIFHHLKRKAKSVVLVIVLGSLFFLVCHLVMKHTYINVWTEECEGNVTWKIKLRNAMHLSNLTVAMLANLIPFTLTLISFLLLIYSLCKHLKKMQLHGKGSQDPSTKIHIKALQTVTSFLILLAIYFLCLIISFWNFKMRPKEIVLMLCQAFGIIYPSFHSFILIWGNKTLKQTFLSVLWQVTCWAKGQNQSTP
Put plainly: FLIPR calcium assay in HEK-293T Gα16gust44 cells transiently transfected with SST-hTAS2R49-HSV. Format: cell-based. The conditions noted are these: for activation of hTAS2R49 (calcium response): hTAS2R49 transfected vs mock transfected cells. The source says:
The TAS2R49 human bitter taste receptor was functional expressed in a heterologouse cell system. Therefore, the coding region for this hTAS2R was cloned into a vector (pcDNA5/FRT, Invitrogen, San Diego, Calif.). The construct includes the sequence for the first 45 amino acids of a rat somatostatin receptor type 3 (SST) coupled to the N-terminal end of the receptor for an improvement of receptor membrane targeting. At the C-terminus of the bitter taste receptor a herpes simplex virus glycoprotein D (HSV) epitope was added for immunocytochemical detection. The SST-hTAS2R49-HSV pcDNA5/FRT plasmid construct was transiently transfected into HEK-293T cells stably expressing the chimeric G-protein a subunit Gal6gust44. An empty pcDNA5/FRT plasmid /vector were used as negative control. The cells were seeded into 96-well plates (Greiner Bio-One, Frickenhausen, Germany) under conventional cell culture conditions (Dulbecco's Modified Eagle Medium (DMEM)/10% FCS/1% penicillin/streptomycin; 37° C., 5% CO2, 95% humidity) and 24-26 h later transfected with 150 ng plasmid DNA and 300 ng Lipofectamine 2000 (Invitrogen, San Diego, Calif.). 24-26 h later the cells were loaded with the calcium sensitive dye Fluo4-acetoxymethyl (Molecular Probes, Karlsruhe, Germany) with a final concentration of 20 μM in serum-free DMEM medium. The organic anion-transport inhibitor probenecid (Sigma Aldrich, München, Germany) was added to the dye/medium solution to reduce leakage of the indicator after cleavage of the ester bonds. 1 h after loading, the well plates were washed 3 times with 30 min incubation between the last second wash steps (protected from light) by Denley cell washer (Thermo Fisher Scientific Inc., Waltham, Mass.). The washing solution contains 130 mM NaCl, 5 mM KCl, 10 mM HEPES with pH 7.4, 2 mM CaCl2, and 10 mM Glucose. The agonist was solved and diluted in wash solution.
The elevation of the cytosolic calcium concentration was measured after application of the test substances using the Fluorometric Imaging Plate Reader (FLIPR, Molecular Devices, Munich, Germany) at […]. The vitality of the cells was verified by a second application of 100 nM somatostatin-14, an agonist of the endogenous […] somatostatin receptor type 2. To exclude unspecific responses and false positive signals, mock transfected cells were always measured on the same plate with the same compound concentration each. All experiments were performed at least twice. For the calculation of the dose-response function, the signals of the wells with the same concentration of the agonist were automatically normalized with the control wells (mock transfection, Fmock) by FLIPR384® software (Molecular Devices, Munich, Germany). To consider the dye loading efficiency and the cell number the background fluorescence was measured for each plate/each well and denoted as signal test. […] The calculation of the EC50 values were prepared in SigmaPlot 9.0 by nonlinear regression to the function f(x)=100/[1+(EC50/x)nH], where x is the agonist concentration and nH is the Hill coefficient.

Where [3] appears, read: averaged dose response curve (n=5), FIG. 1.

As to `O=C(O)c1cc(=O)c2c(OCC(O)COc3cccc4oc(C(=O)O)cc(=O)c34)cccc2o1` [Cromolyn sodium, disodium salt of 5,5′-[(2-hydroxytrimethylene)dioxy]bis[4-oxo-4H-1-benzopyran-2-carboxylate]], in data set [1], the water solubility result is reported as “water-soluble”.

Regarding `O=C(O)c1cc(=O)c2c(OCC(O)COc3cccc4oc(C(=O)O)cc(=O)c34)cccc2o1` [cromolyn], in data set [2] (setting [3]), the EC50 came to 42 ± 13 µM and the threshold was roughly 0.01 mM. Besides, the “activation of hTAS2R49 (calcium response)” value in data set [2] is on record as “responded robustly; also recorded: effective agonist of hTAS2R49”.

As for `OC(CCCN1CCCCC1)(c1ccccc1)c1ccccc1` [diphenidol], the “activation of hTAS2R49 (calcium response)” value in data set [2] is recorded as “activated the receptor”; in data set [2] (listed as Diphenidol), “agonist for hTAS2R49”.
